Source: patent publication US8461328B2, “Tricyclic heterocyclic compounds, compositions and methods of use thereof” (Genentech, Inc., priority 2010, dated 2013)

Experiments:
Type in all cases: biochemical
JAK1 = biological target: T1, JAK1 (Homo sapiens, UniProt P23458); test: JAK1 inhibition (Table 4); conditions: read-out: JAK1 Ki
T1 construct: made in house; host or cells: SF9 insect cells (baculovirus)

TYK2 = biological target: T2, TYK2 (Homo sapiens, UniProt P29597); test: TYK2 inhibition (Table 4)
T2 construct: made in house; host or cells: SF9 insect cells (baculovirus)
T2 sequence (P29597 873-1187): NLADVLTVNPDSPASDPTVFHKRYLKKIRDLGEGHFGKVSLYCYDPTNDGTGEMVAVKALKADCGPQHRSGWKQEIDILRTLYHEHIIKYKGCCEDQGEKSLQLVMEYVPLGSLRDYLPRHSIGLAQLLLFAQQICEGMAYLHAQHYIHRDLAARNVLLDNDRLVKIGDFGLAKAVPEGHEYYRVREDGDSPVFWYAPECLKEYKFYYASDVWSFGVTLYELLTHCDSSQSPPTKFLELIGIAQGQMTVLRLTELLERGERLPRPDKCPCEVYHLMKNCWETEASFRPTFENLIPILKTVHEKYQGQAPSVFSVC

JAK2 = biological target: T3, JAK2 (Homo sapiens, UniProt O60674); test: JAK2 inhibition (Table 4); conditions: read-out: JAK2 Ki
T3 construct: made in house; host or cells: SF9 insect cells (baculovirus)
T3 sequence (O60674 812-1132): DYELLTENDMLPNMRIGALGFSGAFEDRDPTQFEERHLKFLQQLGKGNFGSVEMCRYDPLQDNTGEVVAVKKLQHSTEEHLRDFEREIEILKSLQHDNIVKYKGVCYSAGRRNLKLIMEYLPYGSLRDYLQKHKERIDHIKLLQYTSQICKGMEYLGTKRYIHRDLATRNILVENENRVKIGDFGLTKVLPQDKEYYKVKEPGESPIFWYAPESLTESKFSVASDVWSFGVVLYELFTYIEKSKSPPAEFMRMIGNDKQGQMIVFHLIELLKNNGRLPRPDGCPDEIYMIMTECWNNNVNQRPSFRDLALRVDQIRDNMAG

JAK3 = biological target: T4, JAK3 (Homo sapiens, UniProt P52333); test: JAK3 inhibition (Table 4); conditions: read-out: JAK3 Ki
T4 construct: made in house; host or cells: SF9 insect cells (baculovirus)
T4 sequence (P52333 783-1124): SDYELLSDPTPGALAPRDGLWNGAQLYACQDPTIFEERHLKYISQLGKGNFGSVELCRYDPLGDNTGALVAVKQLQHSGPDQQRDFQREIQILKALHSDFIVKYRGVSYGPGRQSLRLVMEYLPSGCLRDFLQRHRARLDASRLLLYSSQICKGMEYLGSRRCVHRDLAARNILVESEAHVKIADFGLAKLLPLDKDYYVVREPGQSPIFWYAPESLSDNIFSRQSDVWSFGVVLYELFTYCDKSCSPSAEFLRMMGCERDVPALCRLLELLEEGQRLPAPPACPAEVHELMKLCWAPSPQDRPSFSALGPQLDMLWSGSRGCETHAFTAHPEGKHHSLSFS

T1 sequence (P23458 852-1154): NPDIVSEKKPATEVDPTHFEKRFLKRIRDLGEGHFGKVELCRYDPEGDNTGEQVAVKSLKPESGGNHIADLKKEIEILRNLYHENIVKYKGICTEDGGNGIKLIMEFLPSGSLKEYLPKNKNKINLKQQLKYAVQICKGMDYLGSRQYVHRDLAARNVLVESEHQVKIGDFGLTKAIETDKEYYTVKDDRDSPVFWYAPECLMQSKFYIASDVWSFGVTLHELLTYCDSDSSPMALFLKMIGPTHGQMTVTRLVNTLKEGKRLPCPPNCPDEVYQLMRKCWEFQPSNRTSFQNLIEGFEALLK

Row | Structure (SMILES) | Ki (JAK1) [nM] | Ki (TYK2) [nM] | Ki (JAK2) [nM] | Ki (JAK3) [nM]
1 | Cc1nc2cnc3[nH]ccc3c2n1[C@H]1CC[C@@H](NCCC#N)C1 [Example 723, 3-[(1R,3S)-3-(2-Methyl-6H-1,3,5,6-tetraaza-as-indacen-1-yl)-cyclopentylamino]-propionitrile] | 6.22 | 94.6 | 29.7 | 4.88
2 | Cc1nc2cnc3[nH]ccc3c2n1[C@@H]1CC[C@@H](NCCC#N)C1 [Example 724, 3-[(1R,3R)-3-(2-Methyl-6H-1,3,5,6-tetraaza-as-indacen-1-yl)-cyclopentylamino]-propionitrile] | 6.27 | 78.9 | 24.3 | 16
3 | Cc1nc2cnc3[nH]ccc3c2n1[C@@H]1CC[C@@H](NC(C)CC#N)C1 (stereo partly drawn) [Example 725, 3-[(1R,3R)-3-(2-Methyl-6H-1,3,5,6-tetraaza-as-indacen-1-yl)-cyclopentylamino]-butyronitrile] | 22.1 | 211 | 49.5 | 32.5
4 | CC(C)(C)OC(=O)N[C@@H]1CC[C@@H](n2nnc3cnc4[nH]ccc4c32)C1 [Example 727, [(1R,3R)-3-(6H-1,2,3,5,6-Pentaaza-as-indacen-1-yl)-cyclopentyl]-carbamic acid tert-butyl ester] | 1.76 | 143 | 7.73 | 74.4
5 | Cc1nc2cnc3[nH]ccc3c2n1[C@H]1CC[C@@H](NC(=O)CC(F)(F)F)C1 [Example 731, 3,3,3-Trifluoro-N-[(1R,3S)-3-(2-methyl-6H-1,3,5,6-tetraaza-as-indacen-1-yl)-cyclopentyl]-propionamide] | 0.58 | 12.4 | 5.54 | 9.13
6 | COC(=O)N[C@@H]1CC[C@@H](n2c(C)nc3cnc4[nH]ccc4c32)C1 [Example 735, [(1R,3R)-3-(2-Methyl-6H-1,3,5,6-tetraaza-as-indacen-1-yl)-cyclopentyl]-carbamic acid methyl ester] | 1.52 | 19.2 | 5.67 | 54.6
7 | Cc1nc2cnc3[nH]ccc3c2n1C1(C)CCN(S(=O)(=O)c2cccnc2)CC1 [Example 740, 2-Methyl-1-[4-methyl-1-(pyridine-3-sulfonyl)-piperidinyl-4-yl]-1,6-dihydro-1,3,5,6-tetraaza-as-indacene] | 21.7 | 296 | 97.7 | 404
8 | Cc1nc2cnc3[nH]ccc3c2n1C1(C)CCN(C(=O)CC#N)CC1 [Example 741, 3-[4-Methyl-4-(2-methyl-6H-1,3,5,6-tetraaza-as-indacen-1-yl)-piperidin-1-yl]-3-oxo-propionitrile] | 103 | 568 | 528 | 1130
9 | C[C@@H](O)c1nc2cnc3[nH]ccc3c2n1C1CCC(CC#N)CC1 (stereo partly drawn) [Example 743, {4-[2-((R)-1-Hydroxy-ethyl)-6H-1,3,5,6-tetraaza-as-indacen-1-yl]cyclohexyl}acetonitrile] | 0.59 | 1.23 | 3.68 | 14.1
10 | O=C(NC1CCC(n2cnc3cnc4[nH]ccc4c32)CC1)OCc1cccnc1 (stereo not shown) [Example 744, [4-(6H-1,3,5,6-tetraaza-as-indacen-1-yl)-cyclohexyl]-carbamic acid pyridin-3-ylmethyl ester] | 7.15 | 86 | 17.8 | 89.2
11 | CN(CC(F)(F)F)C(=O)NC1CCC(n2cnc3cnc4[nH]ccc4c32)CC1 (stereo not shown) [Example 745, 1-methyl-3-[4-(6H-1,3,5,6-tetraaza-as-indacen-1-yl)-cyclohexyl]-1-(2,2,2-trifluoro-ethyl)-urea] | 3.22 | 113 | 11.6 | 37.1
12 | O=C(NC1CCC(n2cnc3cnc4[nH]ccc4c32)CC1)N1CCC1 (stereo not shown) [Example 746, azetidine-1-carboxylic acid [4-(6H-1,3,5,6-tetraaza-as-indacen-1-yl)-cyclohexyl]-amide] | 13.1 | 75.4 | 21.3 | 183
13 | CN(CC(F)F)C(=O)NC1CCC(n2cnc3cnc4[nH]ccc4c32)CC1 (stereo not shown) [Example 747, 1-(2,2-difluoro-ethyl)-1-methyl-3-[4-(6H-1,3,5,6-tetraaza-as-indacen-1-yl)-cyclohexyl]-urea] | 4.22 | 72.7 | 11.7 | 52.5
14 | Cc1nc2cnc3[nH]ccc3c2n1C1CCC(NC(=O)N2CC(F)(F)C2)CC1 (stereo not shown) [Example 748, 3,3-difluoro-azetidine-1-carboxylic acid [4-(2-methyl-6H-1,3,5,6-tetraaza-as-indacen-1-yl)-cyclohexyl]-amide] | 10.7 | 444 | 36.6 | 150

More lines, now with the values ahead:

Row | Ki (JAK1) [nM] | Ki (TYK2) [nM] | Ki (JAK2) [nM] | Ki (JAK3) [nM] | Structure (SMILES)
15 | 2.83 | 177 | 15.8 | 8.96 | Cc1nc2cnc3[nH]ccc3c2n1C1CCC(NC(=O)N(C)CC(F)(F)F)CC1 (stereo not shown) [Example 749, 1-methyl-3-[4-(2-methyl-6H 1,3,5,6-tetraaza-as-indacen-1-yl)-cyclohexyl]-1-(2,2,2-trifluoro-ethyl)-urea]
16 | 4.74 | 130 | 22.1 | 17.6 | Cc1nc2cnc3[nH]ccc3c2n1C1CCC(NC(=O)N(C)CC(F)F)CC1 (stereo not shown) [Example 750, 1-(2,2-difluoro-ethyl)-1-methyl-3-[4-(2-methyl-6H-1,3,5,6-tetraaza-as-indacen-1-yl)-cyclohexyl]-urea]
17 | 7.83 | 83.9 | 27.9 | 79.4 | CNC(=O)OC1CCC(n2c(C)nc3cnc4[nH]ccc4c32)CC1 (stereo not shown) [Example 751, methyl-carbamic acid 4-(2-methyl-6H-1,3,5,6-tetraaza-as-indacen-1-yl)-cyclohexyl ester]
18 | 18.4 | 289 | 76.1 | 296 | CC1(n2cnc3cnc4[nH]ccc4c32)CCN(S(=O)(=O)c2cccnc2)CC1 [Example 753, 1-[4-Methyl-1-(pyridine-3-sulfonyl)-piperidin-4-yl]-1,6-dihydro-1,3,5,6-tetraaza-as-indacene]
19 | 40.4 | 2370 | 286 | 961 | CC1(n2cnc3cnc4[nH]ccc4c32)CCN(Cc2cccc(C#N)c2)CC1 [Example 754, 3-[4-Methyl-4-(6H-1,3,5,6-tetraaza-as-indacen-1-yl)-piperidin-1-ylmethyl]-benzonitrile]
20 | 7.15 | 211 | 33.7 | 93.1 | CC1(n2cnc3cnc4[nH]ccc4c32)CCN(Cc2cncs2)CC1 [Example 755, 1-(4-Methyl-1-thiazol-5-ylmethyl-piperidin-4-yl)-1,6-dihydro-1,3,5,6-tetraaza-as-indacene]
21 | 36.1 | 1120 | 259 | 617 | CC1(n2cnc3cnc4[nH]ccc4c32)CCN(Cc2ccnc(C#N)c2)CC1 [Example 756, 4-[4-Methyl-4-(6H-1,3,5,6-tetraaza-as-indacen-1-yl)-piperidin-1-ylmethyl]-pyridine-2-carbonitrile]
22 | 2.06 | 33.8 | 10 | 82.8 | CCS(=O)(=O)N1CCC(C)(n2cnc3cnc4[nH]ccc4c32)CC1 [Example 757, 1-(1-Ethanesulfonyl-4-methyl-piperidin-4-yl)-1,6-dihydro-1,3,5,6-tetraaza-as-indacene]
